Test results published in PMC11767661 (Molecules, 2025).
“Also recorded” adds a separate entry of the source.

Columns and labels:
[1] = complex of copper(II) with the buffer; cited from earlier work
Description: Shifting in fragmentation sites could be related to structural alterations induced by the N-protection. It is commonly accepted that the N-capping ...

[2] = 50 mM HEPES buffer at pH 7.4 with 25 µM copper(II) nitrate; settings: 4 °C, up to 14 days
[3] = 50 mM HEPES buffer at pH 7.4 with 25 µM zinc(II) chloride; settings: 4 °C, up to 14 days
[4] = 50 mM Hepes buffer at pH 7.4, peptide alone; settings: 4 °C, up to 14 days
[5] = Peptide hydrolysis in Hepes buffer alone or with Cu2+/Zn2+, followed by HPLC-ESI/MS; format: physicochemical; settings: 50 mM HEPES pH 7.4, 4 °C, LC-MS relative % area
Protocol: Herein, we analyzed the hydrolytic process of Aβ peptides in 50 mM Hepes buffer at 7.4 physiological pH over two weeks at two distinct temperatures, 4 °C and 37 °C, using mass spectrometry coupled with high-performance liquid chromatography (HPLC-MS) for precise analysis. Additionally, we explored the impact of copper(II) or zinc(II) ions, each added in a 1:1 molar ratio to the peptides, on the resulting hydrolytic fragmentation patterns. It is worth noting that metal binding only occurs at the N-terminal region of Aβ peptides, specifically interacting with histidine residues. The commonly accepted peptide sequence 1–16 (^1[…]^16, Aβ16) is widely used as a model for this interaction due to its inclusion of all three histidines (His6, His13, and His14) known for their key roles in coordinating metal ions. Therefore, the initial studies were performed on this short peptide.
General. All chemicals were of reagent grade and purchased from Sigma-Aldrich. Preparative HPLC was carried out with a Shimadzu LC-20AD Prominence instrument equipped with a diode array detector. Mass spectra and LCMS/MS data were performed with an LCQ ADV MAX ion-trap mass spectrometer equipped with an ESI ion source. The instrument was run in an automated LC-MS/MS mode and using a surveyor HPLC system (Thermo Finnigan, San Jose, CA, USA) equipped with a Phenomenex Jupiter 4u Proteo column (4 μm, 150 × 2.0 mm). For the analysis of peptide fragments, Bioworks 3.1 and Xcalibur 2.0.7 SP1 software were used (Thermo Finnigan, San Jose, CA, USA).
Peptide hydrolysis in the presence of metal ions. Solutions of Aβ16 and Aβ28 (500 µM) alone or with the addition of Cu(NO3)2 (1 eqv., 500 µM) or ZnCl2 (1 eqv., 500 µM) were prepared in 50 mM Hepes buffer at pH 7.4. The solutions were then incubated at 4 °C or 37 °C (only for Aβ16) in atmospheric air and every 7 days aliquots were taken, diluted to the 25 µM final concentration with Hepes buffer, and analyzed by HPLC-ESI/MS. The solution of R1τ, Ac-R1τ, αSyn15, and Ac-αSyn15 (25 µM) fragments were incubated in 50 mM Hepes buffer at 4 °C for 14 days; at the same time, solutions also containing copper(II) or zinc(II) in a 1:1 molar ratio respect to peptide were prepared. The elution was performed by using 0.1% HCOOH in distilled water (solvent A) and 0.1% HCOOH in acetonitrile (solvent B), with a flow rate of 0.2 mL/min. Elution started with 98% solvent A for 5 min, followed by a linear gradient from 98 to 55% A in 55 min. […] For the analysis of peptide fragments, Bioworks 3.1 and Xcalibur 2.0.7 SP1 software were used (Thermo Finnigan, San Jose, CA, USA).

[6] = Aβ28 500 µM + 500 µM copper(II) nitrate, 14 days
[7] = Aβ28 500 µM + 500 µM copper(II) nitrate, 21 days
[8] = Aβ28 500 µM + 500 µM zinc(II) chloride, 14 days
[9] = Aβ28 500 µM + 500 µM zinc(II) chloride, 21 days

Compound | cleaved bond [2] | cleaved bond [3] | cleaved bond [4] | Remaining amount of Aβ28 and species detected by LC-MS (Table S2) [5, 6] [%] | Remaining amount of Aβ28 and species detected by LC-MS (Table S2) [5, 7] [%] | Remaining amount of Aβ28 and species detected by LC-MS (Table S2) [5, 8] [%] | Remaining amount of Aβ28 and species detected by LC-MS (Table S2) [5, 9] [%] | Remaining amount of Aβ28 and species detected by LC-MS (Table S2) ([5]; Aβ28 500 µM alone, 14 days) [%] | further results
O=S(=O)(O)CCN1CCN(CCO)CC1 [Hepes] |  |  |  |  |  |  |  |  | Copper(II) complex formation constant (log K) [1]: 3
Ac-^1MDVFMKGLSKAKEGV^15-NH2 | L8-S9, 14 days | L8-S9, 14 days | K6-G7, 14 days; also recorded: K10-A11, 14 days; also recorded: L8-S9, 14 days |  |  |  |  |  | 
Ac-^256VKSKIGSTENLKHQPGGG^273-NH2 | G261-S262, 14 days; also recorded: N265-L266, 14 days; also recorded: E264-N265, 14 days | G261-S262, 14 days; also recorded: N265-L266, 14 days; also recorded: E264-N265, 14 days; also recorded: K267-H268, 14 days | K259-I260, 14 days; also recorded: G261-S262, 14 days; also recorded: I260-G261, 14 days; also recorded: E264-N265, 14 days; also recorded: S258-K259, 14 days; also recorded: Q269-P270, 14 days; also recorded: K267-H268, 14 days; also recorded: L266-K267, 14 days |  |  |  |  |  | 
DAEFRHDSGYEVHHQKLV.F [hydrolytic fragment 1-18 of Aβ28] |  |  |  | 4 | 7 | 7 | 10 | 5 | 
DAEFRHDSGYEVHHQKLVF.F [hydrolytic fragment 1-19 of Aβ28] |  |  |  | 1 | 1 | 7 | 6 |  | 
DAEFRHDSGYEVHHQKLVFFAE.D [hydrolytic fragment 1-22 of Aβ28] |  |  |  | 3 | 5 | 9 | 7 |  | 
E.FRHDSGYEVHHQ.K [hydrolytic fragment 4-15 of Aβ28] |  |  |  |  |  |  |  | 2 | 
H-MDVFMKGLSKAKEGV-NH2 |  |  |  |  |  |  |  |  | amount (%) of intact peptide after hydrolysis: > 90%
K.LVFFAEDVGSNK [hydrolytic fragment 17-28 of Aβ28] |  |  |  | 1 | 1 | 5 | 4 | 22 | 
Q.KLVFFAEDVGSNK [hydrolytic fragment 16-28 of Aβ28] |  |  |  |  |  | 10 | 13 | 16 | 
^1MDVFMKGLSKAKEGV^15-NH2 | K12-E13, 14 days; also recorded: K6-G7, 14 days; also recorded: F4-M5, 14 days; also recorded: L8-S9, 14 days | K6-G7, 14 days; also recorded: F4-M5, 14 days; also recorded: L8-S9, 14 days | K6-G7, 14 days; also recorded: F4-M5, 14 days; also recorded: L8-S9, 14 days |  |  |  |  |  | 
^256VKSKIGSTENLKHQPGGG^273-NH2 | N265-L266, 14 days; also recorded: S258-K259, 14 days; also recorded: Q269-P270, 14 days | K259-I260, 14 days; also recorded: I260-G261, 14 days; also recorded: E264-N265, 14 days; also recorded: K267-H268, 14 days | G261-S262, 14 days; also recorded: N265-L266, 14 days |  |  |  |  |  | 
